# From US20070053866A1, “IN-CAN AND DRY COATING ANTIMICROBIAL COMPOSITIONS HAVING HYDROXY ANALOGS OF METHIONINE AND DERIVATIVES” (NOVUS INTERNATIONAL INC., priority 2005, published 2007)
# How the values were obtained:
# [1] = system: Penicillium and Aspergilus sp.; assay: Dry-film alkyd paint mold and mildew resistance in environmental chamber (ASTM D 3273-94, ASTM D 3274-95); format: cell-based; conditions: scale of 1 to 10, 10 being totally free of growth; for ASTM RATING Mean: One month in the environmental chamber, added at 1% to alkyd paint; for ASTM Rating: Three months of continuous alkyd paint testing in the environmental chamber
# Description: Accelerated testing of biocides in paints is conducted using environmental chambers maintained at constant high humidity (85-88% relative humidity) and temperature (30-33° C.). The chamber was primed with spores of Penicillium and Aspergilus sp. to accelerate the formation of fungal organisms. Wood panels are coated with the experimental paints and placed inside the chamber for a period of 4-12 weeks. The relative resistance of the paint to the mold and mildew inside the chamber was evaluated subjectively from a scale of 1 to 10, with 10 being totally free of growth. This test is described in more detail in ASTM D 3273-94 and ASTM D 3274-95.
# Paint preservatives listed in table 5 below were added at 1% to alkyd paint formulations. HMTBA-Zn is a zinc metal chelate as described above; HMTBA-Cu is a copper metal chelate as described above; HMTBA-Mn is a manganese metal chelate as described above; BIOX-S is 6-ethoxy-1,2-dihydro-2,2,4-trimethylquinoline; BIOX-A is 88 wt. % HMTBA; BIOX-ASL contains 35 wt. % of 2-hydroxy-4-methylthio butanoic acid (88%), 45 wt. % of formic acid, 10 wt. % phosphoric acid and 10 wt. % lactic acid; and BIOX-EZ/7030 contains 70 wt. % of 6-ethoxy-1,2-dihydro-2,2,4-trimethylquinoline and 30 wt. % of HMTBA-Zn metal chelate. Troy663 is a positive control.
# [2] = system: Pseudomonas aeruginosa ATCC 10145 and Enterobacter aerogenes ATCC 13048; assay: In-can paint preservation: bacterial resistance rating of inoculated water borne paint; format: cell-based; design: key: 0: no bacterial recovery; trace of contamination (1 to 9 colonies); 2: light contamination (10 to 99 colonies); 3: moderate contamination (>100 distinct colonies); 4: heavy contamination (continuous smear of growth)
# Description: Paint preservatives listed in the tables below were added at the listed concentrations to water borne paint formulations. BIOX-ASL contains 35 wt. % of 2-hydroxy-4-methylthio butanoic acid (88%), 45 wt. % of formic acid, 10 wt. % phosphoric acid and 10 wt. % lactic acid; BIOX-AWD contains 40 wt. % of 2-hydroxy-4-methylthio butanoic acid, 40 wt. % of formic acid and 20 wt. % propionic acid; BIOX-ASDA contains 36.4 wt. % of calcium bis(2-hydroxy-4-methylthiobuanoate), 41.9 wt. % of fumaric acid, 20 wt. % of benzoic acid, 0.9 wt. % flow aid and 0.73 wt. % other additives; HTA and BIOBAN BP30 are commercially available; BIOX-Z is a HMTBA-Zn metal chelate, and BIOX-C is a HMTBA-Cu metal chelate.
# The paints were inoculated with Pseudomonas aeruginosaATCC 10145 and Enterobacter aerogenes ATCC 13048 at a level of 0.1% inoculum, and paints were then sampled during the next seven days to determine the number of bacterial colonies surviving in the paint. The efficacy of the added antimicrobial agents were given a numeric rating based on the following system: (0) for no bacterial recovery, (1) for trace of contamination (1 to 9 colonies), (2) for light contamination (10 to 99 colonies), (3) for moderate contamination (>100 distinct colonies) and (4) for heavy contamination (continuous smear of growth).
# The paints were then inoculated at a level of 1.0% inoculum and were again sampled during the next seven days to determine the number of bacterial colonies surviving in the paint. These ratings were also plotted versus day after inoculation for each concentration of BIOX-ASL, BIOX-AWD, BIOX-ASDA, and BIOX-C, and are presented in FIGS. 1-4. The minimum inhibitory concentration (MIC) of each BIOX biocide was much lower after one week than those of commercially available products, as shown in FIG. 5.
# [3] = Table 1, week 1, 0.1% inoculum, 5 ppm in water borne paint
# [4] = Table 1, week 1, 0.1% inoculum, 25 ppm in water borne paint
# [5] = Table 2, week 2, 1.0% inoculum, 5 ppm in water borne paint
# [6] = Table 2, week 2, 1.0% inoculum, 25 ppm in water borne paint
# [7] = Table 3, Week 1: 0.1% Inoculum, sample at 1.0%
# [8] = Table 3, Week 2: 1.0% Inoculum, sample at 1.0%
# [9] = Table 4, Week 1: 0.1% Inoculum, sample at 1.0% (Bioban BP30: concentration not given)
# [10] = Table 4, Week 2: 1.0% Inoculum, sample at 1.0%
compound,measurement,setting,value
"CCOc1ccc2c(c1)C(C)=CC(C)(C)N2 [BIOX-S, 6-ethoxy-1,2-dihydro-2,2,4-trimethylquinoline]",ASTM RATING Mean,[1],9.2
"CSCCC(O)C(=O)[O-].CSCCC(O)C(=O)[O-].[Cu+2] (stereo not drawn) [BIOX-C, copper 2-hydroxy-4-methylthiobutanoate chelate]",ASTM RATING Mean,[1],9.3
same,ASTM Rating,[1],9.0 ± 0.6
same,"Bacteria Resistance Rating, Before Inoculation",[2]; [3],0
same,"Bacteria Resistance Rating, Day 1",[2]; [3],0
same,"Bacteria Resistance Rating, Day 2",[2]; [3],0
same,"Bacteria Resistance Rating, Day 5",[2]; [3],0
same,"Bacteria Resistance Rating, Day 7",[2]; [3],0
same,"Bacteria Resistance Rating, Initial Inoculation",[2]; [3],4
same,"Bacteria Resistance Rating, Before Inoculation",[2]; [4],0
same,"Bacteria Resistance Rating, Day 1",[2]; [4],0
same,"Bacteria Resistance Rating, Day 2",[2]; [4],0
same,"Bacteria Resistance Rating, Day 5",[2]; [4],0
same,"Bacteria Resistance Rating, Day 7",[2]; [4],0
same,"Bacteria Resistance Rating, Initial Inoculation",[2]; [4],4
same,"Bacteria Resistance Rating, Before Inoculation",[2]; [5],0
same,"Bacteria Resistance Rating, Day 1",[2]; [5],3 (moderate contamination (>100 distinct colonies))
same,"Bacteria Resistance Rating, Day 2",[2]; [5],1 (trace of contamination (1 to 9 colonies))
same,"Bacteria Resistance Rating, Day 5",[2]; [5],0
same,"Bacteria Resistance Rating, Day 7",[2]; [5],0
same,"Bacteria Resistance Rating, Initial Inoculation",[2]; [5],4
same,"Bacteria Resistance Rating, Before Inoculation",[2]; [6],0
same,"Bacteria Resistance Rating, Day 1",[2]; [6],3 (moderate contamination (>100 distinct colonies))
same,"Bacteria Resistance Rating, Day 2",[2]; [6],0
same,"Bacteria Resistance Rating, Day 5",[2]; [6],0
same,"Bacteria Resistance Rating, Day 7",[2]; [6],0
same,"Bacteria Resistance Rating, Initial Inoculation",[2]; [6],4
same,"Bacterial Resistance Rating, Day 1",[2]; [7],2 (light contamination (10 to 99 colonies))
same,"Bacterial Resistance Rating, Day 2",[2]; [7],0
same,"Bacterial Resistance Rating, Day 5",[2]; [7],0
same,"Bacterial Resistance Rating, Day 7",[2]; [7],0
same,"Bacterial Resistance Rating, Initial",[2]; [7],4
same,"Bacterial Resistance Rating, Day 1",[2]; [8],0
same,"Bacterial Resistance Rating, Day 2",[2]; [8],0
same,"Bacterial Resistance Rating, Day 5",[2]; [8],0
same,"Bacterial Resistance Rating, Day 7",[2]; [8],0
same,"Bacterial Resistance Rating, Initial",[2]; [8],4
same,"Bacterial Resistance Rating, Day 1",[2]; [9],0
same,"Bacterial Resistance Rating, Day 2",[2]; [9],0
same,"Bacterial Resistance Rating, Day 5",[2]; [9],0
same,"Bacterial Resistance Rating, Day 7",[2]; [9],0
same,"Bacterial Resistance Rating, Initial",[2]; [9],4
same,"Bacterial Resistance Rating, Day 1",[2]; [10],0
same,"Bacterial Resistance Rating, Day 2",[2]; [10],0
same,"Bacterial Resistance Rating, Day 5",[2]; [10],0
same,"Bacterial Resistance Rating, Initial",[2]; [10],4
"CSCCC(O)C(=O)O (stereo not drawn) [BIOX-A, 2-hydroxy-4(methylthio)butanoic acid]",ASTM RATING Mean,[1],9.2
CSCCC(O)C(=O)[O-].CSCCC(O)C(=O)[O-].[Mn+2] (stereo not drawn) [HMTBA-Mn],ASTM RATING Mean,[1],7.8
"c1cc[n+]2c(c1)[S][Zn-2]1([O]2)[O][n+]2ccccc2[S]1 [ZINC-OMADINE, reference compound]",ASTM Rating,[1],8.3 ± 0.8
"[Cu+2].[O-]n1ccccc1=S.[O-]n1ccccc1=S [COPPER OMADINE, reference compound]",ASTM Rating,[1],9.2 ± 0.4
"C1N2CN3CN1CN(C2)C3 [HTA, reference compound]","Bacterial Resistance Rating, Day 1",[2]; [7],4
same,"Bacterial Resistance Rating, Day 2",[2]; [7],4
same,"Bacterial Resistance Rating, Day 5",[2]; [7],4
same,"Bacterial Resistance Rating, Day 7",[2]; [7],4
same,"Bacterial Resistance Rating, Initial",[2]; [7],4
CSCCC(O)C(=O)[O-].CSCCC(O)C(=O)[O-].[Zn+2] (stereo not drawn) [BIOX-Z],ASTM RATING Mean,[1],8.7
same,"Bacterial Resistance Rating, Day 1",[2]; [7],0
same,"Bacterial Resistance Rating, Day 2",[2]; [7],0
same,"Bacterial Resistance Rating, Day 5",[2]; [7],0
same,"Bacterial Resistance Rating, Day 7",[2]; [7],0
same,"Bacterial Resistance Rating, Initial",[2]; [7],4
same,"Bacterial Resistance Rating, Day 1",[2]; [8],1 (trace of contamination (1 to 9 colonies))
same,"Bacterial Resistance Rating, Day 2",[2]; [8],0
same,"Bacterial Resistance Rating, Day 5",[2]; [8],0
same,"Bacterial Resistance Rating, Day 7",[2]; [8],0
same,"Bacterial Resistance Rating, Initial",[2]; [8],4
same,"Bacterial Resistance Rating, Day 1",[2]; [9],1 (trace of contamination (1 to 9 colonies))
same,"Bacterial Resistance Rating, Day 2",[2]; [9],0
same,"Bacterial Resistance Rating, Day 5",[2]; [9],0
same,"Bacterial Resistance Rating, Day 7",[2]; [9],0
same,"Bacterial Resistance Rating, Initial",[2]; [9],4
same,"Bacterial Resistance Rating, Day 1",[2]; [10],1 (trace of contamination (1 to 9 colonies))
same,"Bacterial Resistance Rating, Day 2",[2]; [10],0
same,"Bacterial Resistance Rating, Day 5",[2]; [10],0
same,"Bacterial Resistance Rating, Initial",[2]; [10],4
